Data set [1] concerns the target T1, partially purified pig heart adenosine kinase (Sus scrofa, UniProt A0A5G2R0F5).
T1 construct: partially purified pig heart adenosine kinase; from tissue; host or cells: pig heart
The data set is described as follows: Adenosine kinase (AK) inhibition. The data set is classed as biochemical. On the procedure: Adenosine kinase activity was measured essentially as described by Yamada et al. Biochim. Biophys. Acta 660, 36-43 […] with a few minor modifications. Assay mixtures contained 50 mM TRIS-maleate buffer, pH 7.0, 0.1% BSA, 1 mM ATP 1 mM MgCl2, 0.5 μM [U-^14 C]adenosine (400-600 mCi/mmol) and varying duplicate concentrations of inhibitor. The reactions were initiated by addition of approximately 0.1 μU partially purified pig heart adenosine kinase, where one unit is defined as that amount of enzyme required to phosphorylate 1 μmol adenosine per minute. The reactions were incubated for 20 minutes at 37° C. The assay was quenched upon spotting 30 μL aliquots onto 2 cm^2 pieces of Whatman DE81 anion exchange paper. The paper squares were washed for 3 minutes in 6 L distilled/deionized water to remove the unreacted adenosine. […] The amount of ^14 C-AMP was quantified by scintillation counting.

Data set [2] has as its system male SA rats. Put plainly: Anticonvulsant activity, maximal electroshock (MES) model, suppression of hind limb tonic extension. It counts as in vivo. Particulars: Rattus norvegicus, 1 h, one hour before seizure testing. (The maximal electroshock test induces tonic seizures with an electrical stimulus.)
Data set [3] has as its system male SA rats. The data set is described as follows: Analgesic activity, hot plate model. It counts as in vivo. Particulars: Rattus norvegicus, po. The text has this: (§1) Ther., 250:3, 915-922 (1989). See also, Life Sciences 51:171-76 (1992). These models measure pain avoidance and tolerance in response to a regulated stimulus, and compare the response of animals before and after they are given test compound.

Data set [4] deals with male SA rats. Put plainly: Analgesic activity, tail flick model. The data set is classed as in vivo. The following applies: Rattus norvegicus, po.
Source text: as §1

For data set [5], the system named is carrageenan-induced paw swelling in rats. The data set is described as follows: Anti-inflammatory activity, carrageenan paw swelling. It counts as in vivo, rat. The following applies: po, 10 mg/kg, paw swelling 3 hours after carrageenan, vs vehicle. Here is the method: Carrageenan (Type λ) was suspended in sterile PBS at 1% (w/v), autoclaved for 30 minutes, and stored at room temperature. Rats were pretreated with vehicle or AK inhibitor (10 mg/kg) by oral gavage or i.p. administration and the volume of the left hind paw was measured using a water displacement plethysmometer (Stoelting Co., Wood Dale, Ill.). One hour after oral treatment or 30 minutes after i.p. treatment, the rats were briefly anesthetized, and 0.1 ml of the carrageenan solution was injected subcutaneously into the planar surface of the left hind paw. The ensuing paw swelling was measured by plethysmometry after 3 hours. The paw volume in millileters was subtracted from the pre-injection paw volume. Data are presented as the percent inhibition of paw swelling in AK inhibitor treated animals, compared to vehicle treated control animals.

The nature of data set [6]: Oral bioavailability in dogs (oral vs intravenous AUC). The data set is classed as in vivo, dog (female beagles). The following applies: dog, plasma, 10 mg/kg, read-out: % Oral Availability. On the procedure:
Oral bioavailability was determined by comparing the dose corrected areas under the plasma-concentration time curve (AUC) to infinity for the each tested compound, given orally and intravenously in dogs. […] One dog received this solution at an infusion rate of 0.1 mL/min for 20 minutes. The other dog received a 0.2 mL/in infusion for 10 minutes. […] The plasma was separated within 10 minutes of blood collection and was stored frozen. The plasma concentration of compound was then determined for these IV infusions. […] The plasma concentration of compound was determined for this oral administration. The samples were assayed for intact adenosine kinase inhibitor by high performance liquid chromatography (HPLC). An internal standard was added to each test sample and standard sample. Each was then extracted with 10 volumes of 1% v/v dimethylsulfoxide in acetonitrile. […] The dried residue was reconstituted in mobile phase and the contents were analyzed for the adenosine kinase inhibitor (AKI) on HPLC. […] Pharmacokinetic parameters were calculated from the plasma concentration vs. time data, using standard non-compartmental methods. […] et al., Pharmacokinetics., 2[…]. (1983).

In data set [7] the test system is rat and guinea pig brain slices. Particulars: cited from earlier work.
The subject of data set [8] is mice. The following applies: interpreted as skeletal muscle relaxation; cited from earlier work.
In data set [9] the test system is mice. The following applies: cited from earlier work.
The next data set concerns anesthetized rats. The following applies: cited from earlier work.
The next data set relates to rat cardiomyocytes. The following applies: cited from earlier work.
A further data set deals with isolated rat hearts. Particulars: perfused with 5-iodotubercidin alone, cited from earlier work.
For another data set, the system named is dog hearts. Particulars: cited from earlier work.
Another data set relates to ischemic cerebral injury. Particulars: Phillis et al.; cited from earlier work.
Data set [10] deals with isolated guinea pig hearts. Particulars: cited from earlier work.
[11] abbreviates: po, fasted, read-out: Anticonvulsant ED50 (MES), po.

Read-outs that look alike come from different tables or passages of the source. Where only a bound is given, the exact number is not on record here.

T1 sequence (A0A5G2R0F5 1-362): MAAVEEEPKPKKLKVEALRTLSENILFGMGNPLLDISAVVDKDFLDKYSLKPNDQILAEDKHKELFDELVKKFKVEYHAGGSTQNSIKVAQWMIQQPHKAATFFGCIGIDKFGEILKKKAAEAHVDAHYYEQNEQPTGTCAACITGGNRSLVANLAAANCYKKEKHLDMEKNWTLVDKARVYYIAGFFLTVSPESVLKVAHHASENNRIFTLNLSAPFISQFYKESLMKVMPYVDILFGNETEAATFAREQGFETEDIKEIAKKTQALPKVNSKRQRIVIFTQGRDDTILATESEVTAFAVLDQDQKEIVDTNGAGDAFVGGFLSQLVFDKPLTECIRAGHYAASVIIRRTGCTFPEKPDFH

In data set [1], `C[C@H]1O[C@@H](n2cc(-c3ccccc3)c3c(Nc4ccc(F)cc4)ncnc32)[C@H](O)[C@@H]1O` [#1, 4-N-(4-fluorophenyl)amino-5-phenyl-7-(5-deoxy-1-β-D-ribofuranosyl)pyrrolo(2,3-d)pyrimidine] gave an IC50 of 11 nM. Besides, the ED50 in the data set on male SA rats [2] (ip, >5 or <5 = fewer or more than 50% inhibited in initial screen at 5 mg/kg ip, read-out: Anticonvulsant ED50 (MES), ip) is 1.9 mg/kg; in the data set with male SA rats [2] (setting [11]) it was 5.1 mg/kg; with male SA rats [3], 16.9 mg/kg; in the data set with male SA rats [4] it was less than 10 mg/kg. For the same molecule, the “Carrageenan Paw (% inh)” value in [5] was 0.2%.
Regarding `COc1ccc(-c2cn([C@@H]3O[C@H](C)[C@@H](O)[C@H]3O)c3ncnc(Nc4ccc(C#N)cc4)c23)cc1` [#27, 4-N-(4-cyanophenyl)amino-5-(4-methoxyphenyl)-7-(5-deoxy-1-β-D-ribofuranosyl)pyrrolo[2,3-d]pyrimidine], the bioavailability in [6] stood at 100%.
As to `C[C@H]1O[C@@H](n2cc(I)c3c(N)ncnc32)[C@H](O)[C@@H]1O` [5'-deoxy-5-iodotubercidin], in data set [7], the adenosine uptake result was “adenosine uptake was reportedly inhibited”. The “flaccidity and spontaneous locomotor activity” value in the data set on mice [8] is “pronounced general flaccidity and much-reduced spontaneous locomotor activity in mice”. Moreover, the hypothermia result in the data set on mice [9] is on record as “hypothermia in mice”. Further, in the data set on anesthetized rats, the “blood pressure and heart rate” value was “decrease blood pressure and heart rate in anesthetized rats”.
With `OC[C@H]1O[C@@H](n2cnc3c2NC=NC[C@H]3O)C[C@@H]1O` [2'-deoxycoformycin], the “effect on adenosine release” value with rat cardiomyocytes (inhibition of adenosine deaminase alone) is recorded as “no effect on adenosine release from the cells”.
Turning to `C[C@H]1O[C@@H](n2cc(-c3ccccc3)c3c(Nc4ccc(C#N)cc4)ncnc32)[C@H](O)[C@@H]1O` [#21, 4-N-(4-cyanophenyl)amino-5-phenyl-7-(5-deoxy-1-β-D-ribofuranosyl)pyrrolo[2,3-d]pyrimidine], 14 nM corresponded to half-maximal inhibition in data set [1] (IC50). In addition, the 50% effective dose (ED50) with male SA rats [2] (setting [11]) is greater than 20 mg/kg. For the same molecule, the bioavailability in data set [6] was determined as 23%.
On to `Nc1ncnc2c1c(I)cn2[C@@H]1O[C@H](CO)[C@@H](O)[C@H]1O` [5-iodotubercidin], for which the perfusate adenosine concentration result was “no increase in perfusate adenosine concentration” with isolated rat hearts (hypoxic, anoxic or ischemic conditions) and “no increase in perfusate adenosine concentration” with isolated rat hearts (normoxic conditions). Also, the adenosine uptake result in data set [7] is “adenosine uptake was reportedly inhibited”. The “effects in ischemia and reperfusion model” value in the data set with dog hearts is on record as “inconsistent effects”. In the data set on mice [8], the “flaccidity and spontaneous locomotor activity” value is “pronounced general flaccidity and much-reduced spontaneous locomotor activity in mice”. In addition, the hypothermia entry with mice [9] is reported as “hypothermia in mice”. Also, the “blood pressure and heart rate” value in the data set with anesthetized rats is “decrease blood pressure and heart rate in anesthetized rats”. The “protection against ischemic cerebral injury” value in the data set with ischemic cerebral injury is “does not protect against ischemic cerebral injury”.
For `NC[C@H]1O[C@@H](n2cnc3c(N)ncnc32)[C@H](O)[C@@H]1O` [5'-amino-5'-deoxyadenosine], the “increase in adenosine release” value in the data set on rat cardiomyocytes (inhibition of ADA together with adenosine kinase) is recorded as 6 fold. Further, the “adenosine release effects without ADA inhibition” value in [10] (absence of ADA inhibition) is recorded as “not apparent in the absence of ADA inhibition”. Also, in data set [10] (perfusion medium, in the presence of EHNA), the “increase of adenosine release” value is reported as 15 fold.

One may read the IC50 as the concentration at which inhibition is half-maximal. A high value points to weaker potency in that assay. A word on the ED50: it is the dose at which the effect has come halfway, by size or by number of responders.

These data come from patent US5721356A, “Orally active adenosine kinase inhibitors” (Gensia, Inc., priority 1995, dated 1998).
